# Values of other authors as cited in patent US10285971B2, “Formulations of water-soluble derivatives of vitamin E and soft gel compositions, concentrates and powders containing same” (VIRUN, INC., priority 2014, dated 2019).
row,Substance,HLB value
1,sucrose distearate,3
2,sucrose dipalmitate,7.4
3,sucrose monopalmitate,> 10
